From patent US20250313563A1, “GLYCOGEN SYNTHASE KINASE 3 INHIBITORS AND USES THEREOF” (The Broad Institute, Inc., priority 2022, published 2025)
Read-outs that look alike come from different tables or passages of the source.

Assays:
[1] = target: GSK3b (GST-full length GSK3b) (Homo sapiens (Human), UniProt P49841); experiment: GSK3b TR-FRET kinase assay; format: biochemical
In short: (§1)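 Compound was preincubated 30 min with 1 nM GST-GSK3 enzyme. Reaction ran 100 min at ambient temperature in Tris pH 7.5/MgCl2 with 200 nM biotinylated pS645-glycogen synthase 631-650 peptide and ATP (4 μM GSK3α, 2 μM GSK3b, or 1 mM). The EDTA-stopped reaction was read by TR-FRET (Tb-anti-pSer641/streptavidin-d2), and IC50s were fitted.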

[2] = target: GSK3α (GST-full length GSK3α) (Homo sapiens (Human), UniProt P49840); experiment: GSK3α TR-FRET kinase assay; format: biochemical
In short: as §1

[3] = 1 nM GSK3b, 2 μM ATP, 30 minute preincubation, Table 16, read-out: GSK3-B TR-FRET BIOCHEMICAL (TR-FRET), IC50
[4] = 1 nM GSK3α, 4 μM ATP, 30 minute preincubation, Table 16, read-out: GSK3-A TR-FRET BIOCHEMICAL (TR-FRET), IC50
[5] = read-out: GSK3-B (TR-FRET 1 mM ATP), GMean, IC50, 1 mM ATP, geometric mean
[6] = read-out: GSK3-A (TR-FRET 1 mM ATP), GMean, IC50, 1 mM ATP, geometric mean
[7] = 1 nM GSK3b, 2 μM ATP, 30 minute preincubation, geometric mean, read-out: GSK3-B TR-FRET BIOCHEMICAL (TR-FRET), GMean, IC50
[8] = 1 nM GSK3α, 4 μM ATP, 30 minute preincubation, geometric mean, read-out: GSK3-A TR-FRET BIOCHEMICAL (TR-FRET), GMean, IC50
[9] = 1 nM GSK3b, 2 μM ATP, 30 minute preincubation, Table 16, read-out: GSK3-B TR-FRET BIOCHEMICAL (TR-FRET)
[10] = 1 nM GSK3α, 4 μM ATP, 30 minute preincubation, Table 16, read-out: GSK3-A TR-FRET BIOCHEMICAL (TR-FRET)
[11] = 1 nM GSK3b, 2 μM ATP, 30 minute preincubation, read-out: GSK3-B TR-FRET BIOCHEMICAL (TR-FRET), IC50
[12] = 1 nM GSK3α, 4 μM ATP, 30 minute preincubation, read-out: GSK3-A TR-FRET BIOCHEMICAL (TR-FRET), IC50

Chain of GSK3b (GST-full length GSK3b) (P49841 whole entry): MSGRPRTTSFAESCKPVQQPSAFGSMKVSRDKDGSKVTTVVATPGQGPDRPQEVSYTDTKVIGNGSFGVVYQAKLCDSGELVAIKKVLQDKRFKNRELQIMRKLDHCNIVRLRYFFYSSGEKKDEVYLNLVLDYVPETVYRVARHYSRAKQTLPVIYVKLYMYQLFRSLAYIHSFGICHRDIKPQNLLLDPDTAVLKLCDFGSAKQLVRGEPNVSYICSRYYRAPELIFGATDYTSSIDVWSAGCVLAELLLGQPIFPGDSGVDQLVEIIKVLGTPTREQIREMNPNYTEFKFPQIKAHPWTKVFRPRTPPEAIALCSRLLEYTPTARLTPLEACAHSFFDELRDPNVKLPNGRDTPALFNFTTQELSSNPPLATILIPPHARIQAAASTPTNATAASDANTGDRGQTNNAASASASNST
Chain of GSK3α (GST-full length GSK3α) (P49840 whole entry): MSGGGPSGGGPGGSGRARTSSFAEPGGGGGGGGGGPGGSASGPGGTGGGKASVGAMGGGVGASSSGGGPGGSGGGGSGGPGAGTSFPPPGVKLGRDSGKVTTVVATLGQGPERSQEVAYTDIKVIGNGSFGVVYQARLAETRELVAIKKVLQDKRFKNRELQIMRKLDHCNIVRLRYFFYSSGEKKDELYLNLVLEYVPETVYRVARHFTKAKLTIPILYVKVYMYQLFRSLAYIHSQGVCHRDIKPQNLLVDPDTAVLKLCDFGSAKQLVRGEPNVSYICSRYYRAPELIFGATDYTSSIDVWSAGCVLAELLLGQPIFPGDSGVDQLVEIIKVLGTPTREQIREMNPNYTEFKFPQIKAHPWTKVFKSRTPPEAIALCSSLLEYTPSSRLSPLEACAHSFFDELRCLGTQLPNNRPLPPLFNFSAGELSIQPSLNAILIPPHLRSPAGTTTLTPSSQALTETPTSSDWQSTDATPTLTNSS

## CC[C@@]1(c2cccc(-c3cc(C)nn3-c3ccccc3)c2)C2=C(CC(C)(C)NC2=O)Nc2n[nH]cc21 [Compound 951845]
[1]; [3]
  IC50: 100 to 1000 nM
[2]; [4]
  IC50: 100 to 1000 nM

## Cn1ccc(CN2CC3(C2)C2=C(CC(C)(C)CC2=O)Nc2n[nH]cc23)n1 [Compound 932652]
[1]; [3]
  IC50: > 5000 nM
[2]; [4]
  IC50: > 5000 nM

## CC(C)(C)Cc1[nH]nc2c1C1(CN(C(=O)OCc3ccccc3)C1)C1=C(CC(C)(C)CC1=O)N2 [Compound 90330]
[1]; [5]
  IC50: > 5000 nM
[2]; [6]
  IC50: > 5000 nM

## CCC1(c2cccc(-c3cn[nH]c3)c2)C2=C(CC(C)(C)NC2=O)Nc2n[nH]c(C(F)(F)F)c21 (stereo not drawn) [Compound 947677]
[1]; [7]
  IC50: ≤ 100 nM
[2]; [8]
  IC50: ≤ 100 nM

## Cc1cc([C@H]2CC[C@@]3(CC2)C2=C(CC(C)(C)CC2=O)Nc2n[nH]cc23)ccn1 [Compound 948415]
[1]; [9]
  IC50: ≤ 100 nM
[2]; [10]
  IC50: ≤ 100 nM

## CC1(C)CC(=O)C2=C(C1)Nc1n[nH]cc1C21CCN(S(=O)(=O)c2cc(F)ccn2)CC1 [Compound 947262]
[1]; [9]
  IC50: 100 to 1000 nM
[2]; [10]
  IC50: 100 to 1000 nM

## CCC1(c2cccc(N(C)c3ccnc(C)c3)c2)C2=C(CC(C)(C)CC2=O)Nc2n[nH]cc21 (stereo not drawn) [Compound 932645]
[1]; [3]
  IC50: 1000 to 5000 nM
[2]; [4]
  IC50: 100 to 1000 nM

## Cc1ccc(S(=O)(=O)N2CCC3(CC2)C2=C(CC(C)(C)CC2=O)Nc2n[nH]cc23)cc1Cl [Compound 947241]
[1]; [9]
  IC50: ≤ 100 nM
[2]; [10]
  IC50: ≤ 100 nM

## CC[C@@]1(c2ccccc2)C2=C(C[C@H](c3ccccc3)CC2=O)Nc2n[nH]cc21 [Compound 791263]
[1]; [7]
  IC50: > 5000 nM
[2]; [8]
  IC50: > 5000 nM

## CN1CC2(C3=C(CC(C)(C)CC3=O)Nc3n[nH]c(C4CC(F)(F)C4)c32)c2ccccc21 (stereo not drawn) [Compound 119047]
[1]; [5]
  IC50: 100 to 1000 nM
[2]; [6]
  IC50: 1000 to 5000 nM

## C[C@@H]1C[C@@H]2C[C@]3(C[C@@H]2C1)C1=C(CC(C)(C)CC1=O)Nc1n[nH]cc13 [Compound 943898]
[1]; [11]
  IC50: ≤ 100 nM
[2]; [12]
  IC50: ≤ 100 nM

## CCC1(c2cccc(N3CC(C)(C)C3C(C)C)c2)C2=C(CC(C)(C)CC2=O)Nc2n[nH]cc21 (stereo not drawn) [Compound 902969]
[1]; [3]
  IC50: 1000 to 5000 nM
[2]; [4]
  IC50: 100 to 1000 nM

## CC[C@]1(c2ccccc2)C2=C(C[C@@]3(CCCOC3)CC2=O)Nc2n[nH]cc21 [Compound 816876]
[1]; [7]
  IC50: > 5000 nM
[2]; [8]
  IC50: > 5000 nM

## Cc1cnn(C)c1S(=O)(=O)N1CCC2(CC1)C1=C(CC(C)(C)CC1=O)Nc1n[nH]cc12 [Compound 945658]
[1]; [9]
  IC50: 1000 to 5000 nM
[2]; [10]
  IC50: 100 to 1000 nM

## CCc1cnccc1-c1cccc(C2(CC)C3=C(CC(C)(C)NC3=O)Nc3n[nH]cc32)c1 (stereo not drawn) [Compound 948657]
[1]; [7]
  IC50: > 5000 nM
[2]; [8]
  IC50: > 5000 nM

## CCC1(c2cccc(OC)c2)C2=C(CC(C)(C)NC2=O)Nc2n[nH]c(C)c21 (stereo not drawn) [Compound 948763]
[1]; [7]
  IC50: 100 to 1000 nM
[2]; [8]
  IC50: ≤ 100 nM

## CC1(C)CC(=O)C2=C(C1)Nc1n[nH]cc1[C@]21CC[C@@H](C(F)(F)F)C1 [Compound 952437]
[1]; [9]
  IC50: 100 to 1000 nM
[2]; [10]
  IC50: 100 to 1000 nM

## CCC1(c2cccc(-c3ccnn3C)c2)C2=C(CC(C)(C)NC2=O)Nc2n[nH]cc21 (stereo not drawn) [Compound 914971]
[1]; [11]
  IC50: 100 to 1000 nM
[2]; [12]
  IC50: ≤ 100 nM

## CCC1(c2cccc(N(C)C(=O)c3cnn(C)c3)c2)C2=C(CC(C)(C)CC2=O)Nc2n[nH]cc21 (stereo not drawn) [Compound 913311]
[1]; [3]
  IC50: ≤ 100 nM
[1]; [5]
  IC50: > 5000 nM
[2]; [4]
  IC50: ≤ 100 nM
[2]; [6]
  IC50: > 5000 nM

## COC(=O)C1(c2ccccc2)CC2(C1)C1=C(CC(C)(C)CC1=O)Nc1n[nH]cc12 (stereo not drawn) [Compound 942344]
[1]; [9]
  IC50: 100 to 1000 nM
[2]; [10]
  IC50: ≤ 100 nM

## CCC1(c2cccc(N3CCOCC3)c2)C2=C(CC(C)(C)NC2=O)Nc2n[nH]c(C)c21 (stereo not drawn) [Compound 947564]
[1]; [7]
  IC50: 100 to 1000 nM
[2]; [8]
  IC50: 100 to 1000 nM

## CC[C@]1(c2ccccc2)C2=C(C[C@H](c3ccccc3)CC2=O)Nc2n[nH]cc21 [Compound 791262]
[1]; [7]
  IC50: > 5000 nM
[2]; [8]
  IC50: > 5000 nM

## CCC1(c2cccc(-c3c(C)nnn3C)c2)C2=C(CC(C)(C)CC2=O)Nc2n[nH]cc21 (stereo not drawn) [Compound 943996]
[1]; [9]
  IC50: ≤ 100 nM
[1]; [5]
  IC50: 100 to 1000 nM
[2]; [10]
  IC50: ≤ 100 nM
[2]; [6]
  IC50: ≤ 100 nM

## CC[C@]1(c2cccc(-c3ccnc4ccccc34)c2)C2=C(CC(C)(C)CC2=O)Nc2n[nH]cc21 [Compound 944031]
[1]; [9]
  IC50: ≤ 100 nM
[2]; [10]
  IC50: ≤ 100 nM

## CCC1(c2cccc(-c3ccnc(OC)c3)c2)C2=C(CC(C)(C)CC2=O)Nc2n[nH]c(C)c21 (stereo not drawn) [Compound 913053]
[1]; [3]
  IC50: ≤ 100 nM
[2]; [4]
  IC50: ≤ 100 nM

## CC[C@@]1(c2cccc(C(F)(F)F)c2)C2=C(Nc3n[nH]cc31)C(C)(C)N(C)C2=O [Compound 918251]
[1]; [9]
  IC50: > 5000 nM
[2]; [10]
  IC50: > 5000 nM

## CC[C@]1(c2cccc(-c3cnn(C)c3)c2)C2=C(CC(C)(C)NC2=O)Nc2n[nH]c(F)c21 [Compound 949002]
[1]; [7]
  IC50: > 5000 nM
[2]; [8]
  IC50: 1000 to 5000 nM

## CC[C@]1(c2cccc(C(F)(F)F)c2)C2=C(CN(C)C2=O)Nc2n[nH]cc21 [Compound 945368]
[1]; [11]
  IC50: > 5000 nM
[2]; [12]
  IC50: > 5000 nM

## Cn1cc([C@H]2CC[C@]3(CC2)C2=C(CC(C)(C)CC2=O)Nc2n[nH]cc23)cn1 [Compound 949323]
[1]; [3]
  IC50: > 5000 nM
[2]; [4]
  IC50: 1000 to 5000 nM

## CC[C@@]1(c2cccc(-c3cnc(C)n3C)c2)C2=C(CC(C)(C)CC2=O)Nc2n[nH]cc21 [Compound 945613]
[1]; [9]
  IC50: ≤ 100 nM
[1]; [5]
  IC50: 1000 to 5000 nM
[2]; [10]
  IC50: ≤ 100 nM
[2]; [6]
  IC50: 100 to 1000 nM

## CC[C@@]1(c2cccc(-c3ccnn3C)c2)C2=C(CC(C)(C)CC2=O)Nc2n[nH]c(C(F)(F)F)c21 [Compound 947372]
[1]; [9]
  IC50: ≤ 100 nM
[1]; [5]
  IC50: ≤ 100 nM
[2]; [10]
  IC50: ≤ 100 nM
[2]; [6]
  IC50: ≤ 100 nM

## CCC1(c2ccccc2)C2=C(CC(C)(C)CC2=O)Nc2n[nH]c(C(F)F)c21 (stereo not drawn) [Compound 874510]
[1]; [7]
  IC50: ≤ 100 nM
[1]; [5]
  IC50: 100 to 1000 nM
[2]; [8]
  IC50: ≤ 100 nM
[2]; [6]
  IC50: 100 to 1000 nM

## Cc1[nH]nc2c1C1(CCOCC1)C1=C(CC(C)(C)C(F)C1=O)N2 (stereo not drawn) [Compound 912072]
[1]; [9]
  IC50: 100 to 1000 nM
[2]; [10]
  IC50: 100 to 1000 nM

## CC1(C)CC(=O)C2=C(C1)Nc1n[nH]cc1C21CCN(S(=O)(=O)c2cccc(OC(F)F)c2)CC1 [Compound 947242]
[1]; [9]
  IC50: ≤ 100 nM
[1]; GSK3-B (TR-FRET 1 mM ATP), GMean, IC50, 1 mM ATP, geometric mean
  IC50: 100 to 1000 nM
[2]; [10]
  IC50: ≤ 100 nM
[2]; GSK3-A (TR-FRET 1 mM ATP), GMean, IC50, 1 mM ATP, geometric mean
  IC50: ≤ 100 nM

## CC[C@]1(c2ccccc2)C2=C(C[C@](C)(COC)CC2=O)Nc2n[nH]cc21 [Compound 816872]
[1]; [7]
  IC50: > 5000 nM
[2]; [8]
  IC50: > 5000 nM

## CC(C)n1cc(S(=O)(=O)N2CCC3(CC2)C2=C(CC(C)(C)CC2=O)Nc2n[nH]cc23)cn1 [Compound 947607]
[1]; [9]
  IC50: ≤ 100 nM
[2]; [10]
  IC50: ≤ 100 nM

## CCC1(c2cccc(-c3ccnc(C)c3)c2)C2=C(CC(C)(C)N(C)C2=O)Nc2n[nH]cc21 (stereo not drawn) [Compound 949004]
[1]; [7]
  IC50: 100 to 1000 nM
[2]; [8]
  IC50: ≤ 100 nM

## CCC1(c2cccc(-c3cn[nH]c3)c2)C2=C(CC(C)(C)NC2=O)Nc2n[nH]c(C)c21 (stereo not drawn) [Compound 945459]
[1]; [11]
  IC50: ≤ 100 nM
[2]; [12]
  IC50: ≤ 100 nM

## CCC1(c2cccc(Oc3ncccn3)c2)C2=C(CC(C)(C)NC2=O)Nc2n[nH]c(Cl)c21 (stereo not drawn) [Compound 950318]
[1]; [3]
  IC50: ≤ 100 nM
[2]; [4]
  IC50: ≤ 100 nM

## CCC1(c2cccc(-c3ccnc(C)c3)c2)C2=C(Nc3n[nH]cc31)C(F)C(C)(C)CC2=O (stereo not drawn) [Compound 946104]
[1]; [9]
  IC50: 100 to 1000 nM
[1]; [5]
  IC50: > 5000 nM
[2]; [10]
  IC50: ≤ 100 nM
[2]; [6]
  IC50: 100 to 1000 nM

## CC[C@]1(c2cccc(-c3cnn(C)c3)c2)C2=C(CC(C)(C)NC2=O)Nc2n[nH]c(C(F)(F)F)c21 [Compound 947871]
[1]; [7]
  IC50: 100 to 1000 nM
[2]; [8]
  IC50: ≤ 100 nM
